# Reference: patent US7713956B2, “Dealkylated derivatives of pyrrolo[2,1-b]benzothiazepines with atypical antipsychotic activity” (Sigma-Tau Industrie Farmaceutiche Riunite S.p.A., priority 2004, dated 2010)
# Several values for one entry are separate records, joined by “and”; a condition that tells them apart may be missing. Identical values can stand only once.
# What was measured:
# [1] = Pharmacokinetics after oral administration of a 60 μmol/kg dose in the rat; assay type: in vivo
# Source text: Pharmacokinetics of the Compound ST1469 and its Corresponding Des Methyl Derivative ST2087
# Effect of the Oral Administration of a 60 μmol/kg Dose of Each Product in the Rat
# Administration of ST1469 in the Rat (Table 1).
# Administration of ST2087 in the Rat (Table 1)
# Male Fischer 344 rats = assay: Active Avoidance Test (conditioned avoidance response), oral treatment; assay type: in vivo, rat; details: for ED50 / effect on avoidance responses: oral; for ED50: 60 minutes prior to the test, rat, avoidance rate variable, read-out: ED50 (dose reducing avoidance responses by 50% compared to basal values); for effect on avoidance responses: over the active doses tested (ST1469 0.75-6 mg/kg; ST2087 2-8 mg/kg; ST2472 0.5-2 mg/kg)
# Source text: Evaluation of the Antipsychotic Potency of ST1469 and ST1899 and their Respective Desmethyl Derivatives ST2087 and ST2472. Effect of Treatment in the Active Avoidance Test.
# The administration of incremental doses of an antipsychotic drug in the rat causes the inhibition of the avoidance response and an increase in the number of escape responses without any increase in non-responses (failures). This modification of the avoidance behaviour of the animals is characteristic of the effect of the administration of a compound with antipsychotic activity, which selectively blocks the conditioned response within given dosage ranges. This behavioural assessment makes it possible to detect and determine the antipsychotic capacity of a product.
# Male Fischer 344 rats weighing 180 g (Charles River) were used. The products ST1469 and ST2087 were administered to the animals orally, 60 minutes prior to the test. The product ST1469 was administered at doses of 0.75 mg/5 ml/kg (1.84 μmol/kg), 1.5 mg/5 ml/kg (3.69 μmol/kg), 3 mg/5 ml/kg (7.37 μmol/kg), and 6.0 mg/5 ml/kg (14.7 μmol/kg).
# For the product ST2087 the following doses were used: 2 mg/5 ml/kg (6.25 μmol/kg), 3 mg/5 ml/kg (9.38 μmol/kg), 4 mg/5 ml/kg (12.50 μmol/kg), 6 mg/5 ml/kg ([…]) and 8 mg/5 ml/kg (25.01 μmol/kg).
# To perform the avoidance behaviour assessment test, a piece of equipment (Ugo Basile) was used consisting of a plastic cage divided into two compartments by a partition wall with an opening in it allowing communication between the two sectors. Each of the two sectors can be illuminated by a 10-Watt lamp placed above a plexiglass cover covering the cage. A programming device permits the regulation of the duration and frequency of the un-conditioned and discriminatory stimuli, and a computerised system acquires the experimental data. During the study the discriminatory stimulus (light was delivered 3 seconds prior to the unconditioned stimulus (0.3 mA electric shock for 4 seconds). One test per minute was performed in each session making a total of 20 tests per day. One session per day administered.
# The procedure consists in a 1 minute period of familiarisation of the rats in the test cage, followed by the series of tests the start of which is signalled by the light stimulus; the discriminatory stimulus is followed, a few seconds later, by the administration of an electric shock. The rats can avoid the shock by escaping into the adjoining compartment. The responses produced after switching on the light and before the electric shock interrupt the discriminatory stimulus and are considered “avoidances”; the responses produced during the shock period terminate both the discriminatory stimulus and the unconditioned stimulus and are considered “escapes”; non-avoidances are considered “failures”.
# Prior to the treatment with the study compounds, the animals were selected in relation to their ability to acquire the task. Admitted to the test assessing the effect of treatment were those rats that produced at least 75% of avoidances in the basal tests.
# The results were expressed as means and standard errors. On the basis of the number of conditioned responses (avoidances), the dose of product capable of reducing the value of this variable by 50% (ED50) compared to basal values was calculated by means of non-linear regression using the GraphPad Prism data analysis program.
# [2] = In vitro metabolic stability / metabolic profile in mouse hepatic microsomes; assay type: in vitro ADME, Mouse (CD1); details: for metabolic profile (metabolites formed): mouse hepatic microsomes 0.5 mg/ml, 10 μg/ml test item, 37° C. up to 120 minutes
# Method: (§1) In this study the metabolic profiles of ST1899 and its metabolite ST2472 were determined in rat, mouse and monkey microsomes.
# (§2) ST1899 and ST2472 were separately incubated with the hepatic microsomes. Separate experiments were carried out for each animal species investigated. For each experiment, in addition to the test item, 7-ethoxycoumarin (Sigma-Aldrich) was also incubated as a probe for evaluating the metabolic activity of the microsomes: 7-hydroxycoumarin was identified on the basis of the retention times in comparison with those of synthesized standard and used as marker of oxidative metabolism Both the test item and the 7-ethoxycoumarin were incubated at 37° C. up to 120 minutes.
# (§3) MgCl2, β-D-glucose-6-phosphate, βNADP and Glucose-6-phosphate dehydrogenase were used for preparing the NADPH regenerating solution (NRS). 250 μl of 0.1 M pH 7.4 KH2PO4 buffer, 100 μl of NRS and 50 μl of test item (or 7-ethoxycoumarin) standard solution were added to 2 ml Eppendorf test tubes. In the samples, incubated either without microsomes or test items, an equal volume of 0.1 M pH 7.4 KH2PO4 buffer was added.
# (§4) The reaction was started by adding 100 μl of the microsomal suspension to the samples and stopped at selected times by adding 500 μl of methanol. Samples were shaken and centrifuged at 8000 RPM for 10 minutes at 4° C. Supernatants were used for the HPLC analysis. 7-ethoxycoumarin, ST1899 and ST2472 were analyzed according to the HPLC methods described below.
# [3] = In vitro metabolic stability / metabolic profile in monkey hepatic microsomes; assay type: in vitro ADME, Monkey (Cynomolgus); details: for metabolic profile (metabolites formed): monkey hepatic microsomes 0.5 mg/ml, 10 μg/ml test item, 37° C. up to 120 minutes
# Method: as §1, §2, §3, §4
# [4] = In vitro metabolic stability / metabolic profile in rat hepatic microsomes; assay type: in vitro ADME, Rat (Sprague Dawley); details: for metabolic profile (metabolites formed): rat hepatic microsomes 0.5 mg/ml, 10 μg/ml test item, 37° C. up to 120 minutes
# Method: as §1, §2, §3, §4
# [5] = 60 umol/kg, analyte = administered product, oral 60 μmol/kg, rat, plasma, mean
"AUC [1, 5]","Cmax [1, 5]","half-life [1, 5]","Tmax ([1]; rat, plasma, po, 60 umol/kg, analyte = administered product, oral 60 μmol/kg, mean)",metabolic profile (metabolites formed) [2],metabolic profile (metabolites formed) [4],metabolic stability compared with ST1899 ([2]; mouse hepatic microsomes),metabolic stability compared with ST1899 ([3]; monkey hepatic microsomes),metabolic stability compared with ST1899 ([4]; rat hepatic microsomes),SMILES,"concentrations at the systemic level when administered as such ([1]; oral ST2087 60 μmol/kg versus ST2087 formed after ST1469, rat)",ED50 (Male Fischer 344 rats),effect on avoidance responses (Male Fischer 344 rats),metabolic profile (metabolites formed) [3],effect on behaviour of the animals (Male Fischer 344 rats; ST2472 at 0.25 mg/kg (0.88 μmol/kg))
32.2 µM·h,4.09 µM,4.4 h,≤ 2 h,,,,,,"Clc1ccc2c(c1)C(N1CCNCC1)Cn1cccc1S2 (racemic) [ST2087, (±)-7-chloro-9-(piperazin-1-yl)-9,10-dihydropyrrolo[2,1-b][1,3]-benzothiazepine]",much higher concentrations than those measured after its formation as a result of administration of ST1469,3.27 mg/kg and 10.2 µmol/kg,capable of reducing the production of avoidance responses,,
,,,,metabolized mainly to M1,extensively metabolized to ST2472,,,,"CN1CCN(C2=Cn3cccc3Sc3ccccc32)CC1 [ST1899, 9-(4-methylpiperazin-1-yl)-pyrrolo[2,1-b]-[1,3]benzothiazepine, reference compound]",,1.09 mg/kg and 3.66 µmol/kg,,metabolized to ST2472 and to the metabolites M3 and M4,
,,,,metabolized almost exclusively to M2,almost exclusively metabolized to M2,metabolically more stable than ST1899,metabolically more stable than ST1899,metabolically more stable than ST1899,"C1=C(N2CCNCC2)c2ccccc2Sc2cccn21 [ST2472, 9-Piperazin-1-yl-pyrrolo[2,1-b][1,3]benzothiazepine]",,1.43 mg/kg and 5.05 µmol/kg,causes a progressive reduction of the avoidance responses and an increase in escapes,the main metabolite obtained was M3,does not significantly modify the behaviour of the animals
